Data taken from patent US10322092B2, “Substance-containing vesicle, and production method therefor” (JAPAN SCIENCE AND TECHNOLOGY AGENCY, priority 2013, dated 2019).

Tests used:
[1] = Viscosity of FITC-Dex solutions (rotating rheometer); type: physicochemical
Protocol: The viscosity was measured using a rotating rheometer (Physica MCR302, product of Anton Paar).

A549 cells = assay: Cytotoxic effect (Cell Counting Kit-8); type: cell-based, human; conditions: 48 and 72 hours, gemcitabine concentration 0.5 μg/mL or matched carrier amount
Protocol: Specifically, the GEM-adsorbed sulfonated MSN-encapsulating vesicles obtained by the procedure described above (sample No. 1), the sulfonated MSN-encapsulating vesicles used as material for the foregoing (Example II-3A) (sample No. 2) and the vacant vesicles used as material for the foregoing (Example II-1) (sample No. 5) were each labeled with Cy3 (labeling 25% of the number of anionic polymers), and then A549 cells were added to each well of a plate having a density of 2.2×10^3 cells/well in RPMI-1640 medium, prior to culturing at 37° C. The amount of GEM-adsorbed sulfonated MSN-encapsulating vesicles (sample No. 1) added was an amount for a gemcitabine concentration of 0.5 μg/mL in the medium, the amounts of sulfonated MSN-encapsulating vesicles (sample No. 2) and vacant vesicles (sample No. 5) added were adjusted to be the same as the amount of GEM-adsorbed sulfonated MSN-encapsulating vesicles (sample No. 1) in terms of MSN-encapsulating vesicles. […]
Also, the cytotoxic effects of each of the samples (sample Nos. 1 to 6) at 48 hours and 72 hours after the start of culturing were evaluated by the following procedure. Specifically, using a Cell Counting Kit-8 (product of Dojindo) according to the manufacturer's instructions, reagent was added to each well and culturing was conducted for 1 hour, after which the viable cell count was measured. […]

C26 cells = assay: Cytotoxic effect (Cell Counting Kit-8); type: cell-based, murine; conditions: 48 and 72 hours, gemcitabine concentration 0.1 μg/mL or matched carrier amount
Protocol: Also, the cytotoxic effects of each of the samples (sample Nos. 1 to 6) at 48 hours and 72 hours after the start of culturing were evaluated by the following procedure. Specifically, using a Cell Counting Kit-8 (product of Dojindo) according to the manufacturer's instructions, reagent was added to each well and culturing was conducted for 1 hour, after which the viable cell count was measured. The results after 48 hours of culturing are shown in FIG. 34(a), and the results after 72 hours of culturing are shown in FIG. 34(b).
In addition, using C26 cells (a murine colon adenocarcinoma cell line) instead of A549 cells, the cell uptake property and cytotoxic effect were evaluated by the same procedure described above, except for the points mentioned below. […]

[2] = test system: human pulmonary carcinoma cell line A549; assay: Tumor treatment effect in A549-transplanted BALB/c nude mice; type: in vivo, mouse; conditions: 200 μL i.v.; gemcitabine 5 mg/kg or matched carrier amount; 28 days; vs PBS group
Protocol: Human pulmonary carcinoma cell line A549-transplanted BALB/c nude mice (7-week-old, for each sample) were divided into 7 groups of 5 each, among which 6 of the groups were intravenously administered samples 1 to 6 (Groups 1 to 6), respectively. The dose of each sample was 200 μL, and the concentration of each sample of the GEM-adsorbed sulfonated MSN-encapsulating vesicles (sample No. 1), the GEM-adsorbed sulfonated MSN (sample No. 3) and the gemcitabine alone (sample No. 6) was adjusted for a gemcitabine concentration of 5 mg/kg of mouse body weight, while the amounts of sulfonated MSN-encapsulating vesicles (sample No. 2) and vacant vesicles (sample No. 5) added were adjusted to be the same as the amount of GEM-adsorbed sulfonated MSN-encapsulating vesicles (sample No. 1) in terms of MSN-encapsulating vesicles, and the amount of sulfonated MSN (sample No. 4) added was adjusted to be the same as the amount of GEM-adsorbed sulfonated MSN (sample No. 3) in terms of MSN. To the remaining group there was administered 200 μL of PBS (Group 7). The tumor volumes were measured for 28 days after administration. Tumor volume was measured by measuring the long diameter and short diameter of the tumor using a caliper, and calculation was performed by the following formula. V=(a^2×b)/2 V: Tumor volume, a: long diameter, b: short diameter

[3] = test system: mouse colon cancer cell line C26; assay: Tumor treatment effect in C26-transplanted BALB/c mice; type: in vivo; conditions: for antitumor effect (tumor volume): i.v., days 3, 7, 10, 14
Protocol: Mouse colon cancer cell line C26-transplanted BALB/c mice (6-week-old) were divided into 8 groups of 5 each (groups 1 to 8), and each group was intravenously administered 200 μL each of CD-enclosing crosslinked vesicles (0.5 U/mL) prepared by the procedure described above, 5-FC, 5-FU or PBS, at the timing shown in Table 9 below. The 5-FC and 5-FU were prepared for 10 mg/kg (body weight) or 80 mg/kg (body weight), based on the mouse body weight. […] The tumor volume was measured by measuring the long diameter and short diameter of the tumor using a caliper, and the calculation was performed by the following formula. V=(a^2×b)/2 V: Tumor volume, a: long diameter, b: short diameter

[4] = dose of 10 mg/kg (5-FC or 5-FU)
[5] = dose of 80 mg/kg (5-FC or 5-FU)

Molecule	viscosity ([1]; concentration 10 mg/mL)	viscosity ([1]; concentration 4 mg/mL)	antitumor effect (tumor volume) [3, 4]	antitumor effect (tumor volume) [3, 5]	other results
Nc1ccn([C@@H]2O[C@H](CO)[C@@H](O)C2(F)F)c(=O)n1 [gemcitabine alone, Gemcitabine]					cytotoxic effect (viable cell count) (A549 cells): powerful cytotoxic effect; cytotoxic effect (viable cell count) (C26 cells): powerful cytotoxic effect; antitumor effect (tumor volume) [2]: no significant antitumor effect was seen
O=c1[nH]cc(F)c(=O)[nH]1 [Example 5-FU, 5-fluorouracil]			very weak antitumor effect	antitumor effect that shrunk the tumor	individuals died by the 28th day after administration ([3]; dose of 10 mg/kg, 5 mice per group): 3; survival ([3]; dose of 80 mg/kg, 5 mice per group, up to 28 days): all of the individuals died by the 17th day
Nc1nc(=O)[nH]cc1F [Example 5-FC, 5-fluorocytosine]			no significant antitumor effect or toxicity	no significant antitumor effect or toxicity	

More lines, main results first:

viscosity ([1]; concentration 10 mg/mL)	viscosity ([1]; concentration 4 mg/mL)	Molecule	antitumor effect (tumor volume) [3, 4]	antitumor effect (tumor volume) [3, 5]	other results
0.0097 Pa·s		fluorescein isothiocyanate-dextran [FITC-Dex 4000]			
0.1377 Pa·s	0.0513 Pa·s	fluorescein isothiocyanate-dextran [FITC-Dex 40000]			viscosity ([1]; concentration 50 mg/mL): 0.5481 Pa·s
0.1271 Pa·s	0.0504 Pa·s	fluorescein isothiocyanate-dextran [FITC-Dex 10000]			
